Converted amounts (≈) assume the structure as drawn.
Experiments:
R2351Q mPIEZO1 = molecular target: T1, R2351Q mPIEZO1 (Mus musculus, UniProt E2JF22, R2351Q); test: Intracellular Ca2+ measurement (fura-2), T-REx-293 cells stably transfected; assay type: cell-based; conditions: for Mean (Ca2+ signal time course, Figure 4f) / Mean (concentration-response, Figure 4g): R2351Q
T1 construct: expressed in transfected cells

[1] = Aqueous (kinetic) solubility; assay type: physicochemical; conditions: pH 7.4, aqueous buffer, kinetic from dmso stock; physiological pH in PBS
Method: Aqueous solubility, mouse microsomal stability and mouse plasma protein binding assays were performed by Malvern Panalytical (UK) as previously described.[29]

T1 sequence (E2JF22 whole entry R2351Q): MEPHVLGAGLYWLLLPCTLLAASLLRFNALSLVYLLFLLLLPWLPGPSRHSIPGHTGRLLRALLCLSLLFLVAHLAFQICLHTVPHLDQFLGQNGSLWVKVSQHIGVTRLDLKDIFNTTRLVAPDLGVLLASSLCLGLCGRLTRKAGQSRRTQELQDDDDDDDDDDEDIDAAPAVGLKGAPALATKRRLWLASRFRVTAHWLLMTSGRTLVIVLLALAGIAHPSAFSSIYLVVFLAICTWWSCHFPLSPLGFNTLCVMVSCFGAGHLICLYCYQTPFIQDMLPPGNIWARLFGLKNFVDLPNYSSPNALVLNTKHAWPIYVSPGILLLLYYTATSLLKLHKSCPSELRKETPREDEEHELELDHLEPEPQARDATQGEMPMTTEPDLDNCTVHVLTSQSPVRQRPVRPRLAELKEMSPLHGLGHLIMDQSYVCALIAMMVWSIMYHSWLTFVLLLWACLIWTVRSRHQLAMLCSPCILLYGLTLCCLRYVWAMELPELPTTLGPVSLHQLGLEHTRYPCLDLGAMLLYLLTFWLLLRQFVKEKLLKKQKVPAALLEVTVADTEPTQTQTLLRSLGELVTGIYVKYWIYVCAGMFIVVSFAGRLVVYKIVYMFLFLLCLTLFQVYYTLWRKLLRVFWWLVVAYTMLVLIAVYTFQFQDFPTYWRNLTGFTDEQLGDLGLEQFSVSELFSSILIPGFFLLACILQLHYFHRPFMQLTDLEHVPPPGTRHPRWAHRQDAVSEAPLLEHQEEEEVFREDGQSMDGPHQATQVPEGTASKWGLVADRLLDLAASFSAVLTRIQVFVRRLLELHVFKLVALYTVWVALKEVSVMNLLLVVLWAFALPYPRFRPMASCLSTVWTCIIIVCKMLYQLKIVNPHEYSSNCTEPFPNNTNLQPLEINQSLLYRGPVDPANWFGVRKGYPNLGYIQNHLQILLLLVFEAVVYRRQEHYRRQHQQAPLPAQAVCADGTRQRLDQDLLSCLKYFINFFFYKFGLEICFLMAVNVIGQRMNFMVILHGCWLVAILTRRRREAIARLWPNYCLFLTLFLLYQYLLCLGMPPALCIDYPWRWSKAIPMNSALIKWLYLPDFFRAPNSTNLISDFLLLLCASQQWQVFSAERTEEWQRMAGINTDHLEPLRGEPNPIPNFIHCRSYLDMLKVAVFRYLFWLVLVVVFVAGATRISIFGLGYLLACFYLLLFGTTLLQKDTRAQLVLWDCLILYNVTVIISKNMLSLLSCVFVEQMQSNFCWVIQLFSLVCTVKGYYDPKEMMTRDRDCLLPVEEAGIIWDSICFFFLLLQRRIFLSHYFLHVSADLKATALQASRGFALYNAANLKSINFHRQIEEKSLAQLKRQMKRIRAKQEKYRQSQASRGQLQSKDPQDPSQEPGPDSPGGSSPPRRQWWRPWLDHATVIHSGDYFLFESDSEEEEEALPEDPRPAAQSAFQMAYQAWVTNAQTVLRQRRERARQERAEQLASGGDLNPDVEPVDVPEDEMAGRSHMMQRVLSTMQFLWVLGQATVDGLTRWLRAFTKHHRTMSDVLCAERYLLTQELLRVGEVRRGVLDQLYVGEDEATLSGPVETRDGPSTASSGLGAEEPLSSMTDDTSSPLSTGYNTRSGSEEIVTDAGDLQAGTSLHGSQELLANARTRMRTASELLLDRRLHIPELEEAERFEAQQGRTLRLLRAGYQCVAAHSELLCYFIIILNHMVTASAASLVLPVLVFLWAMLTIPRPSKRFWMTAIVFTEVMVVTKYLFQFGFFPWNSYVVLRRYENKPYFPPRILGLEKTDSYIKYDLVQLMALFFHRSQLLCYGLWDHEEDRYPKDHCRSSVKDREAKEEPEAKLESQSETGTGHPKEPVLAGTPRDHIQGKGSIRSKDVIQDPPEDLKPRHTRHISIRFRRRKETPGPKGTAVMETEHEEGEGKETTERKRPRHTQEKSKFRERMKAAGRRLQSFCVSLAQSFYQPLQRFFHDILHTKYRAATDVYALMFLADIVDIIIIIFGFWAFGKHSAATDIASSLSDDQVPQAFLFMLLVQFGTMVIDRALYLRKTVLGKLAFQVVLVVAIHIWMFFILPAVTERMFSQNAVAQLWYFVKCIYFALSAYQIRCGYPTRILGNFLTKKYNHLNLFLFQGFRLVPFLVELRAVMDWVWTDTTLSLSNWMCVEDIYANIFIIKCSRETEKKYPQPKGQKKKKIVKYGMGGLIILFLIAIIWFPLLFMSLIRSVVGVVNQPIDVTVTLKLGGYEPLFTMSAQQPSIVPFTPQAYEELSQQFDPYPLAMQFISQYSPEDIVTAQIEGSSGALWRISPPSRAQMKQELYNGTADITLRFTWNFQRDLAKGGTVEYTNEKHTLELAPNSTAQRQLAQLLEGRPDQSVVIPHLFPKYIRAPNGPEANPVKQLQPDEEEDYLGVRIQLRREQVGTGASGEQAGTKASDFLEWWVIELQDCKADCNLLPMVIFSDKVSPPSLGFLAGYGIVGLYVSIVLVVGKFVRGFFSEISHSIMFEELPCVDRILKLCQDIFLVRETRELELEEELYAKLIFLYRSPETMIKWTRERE

Mean (Ca2+ signal time course, Figure 4f) (R2351Q mPIEZO1; 0.3 µM, time 0 s): -0.00345 | Mean (Ca2+ signal time course, Figure 4f) (R2351Q mPIEZO1; 0.3 µM, time 5 s): -0.00122 | Mean (Ca2+ signal time course, Figure 4f) (R2351Q mPIEZO1; 0.3 µM, time 10 s): 0.01286 | Mean (Ca2+ signal time course, Figure 4f) (R2351Q mPIEZO1; 0.3 µM, time 15 s): 0.00659 | Mean (Ca2+ signal time course, Figure 4f) (R2351Q mPIEZO1; 0.3 µM, time 20 s): -0.0106 | Mean (Ca2+ signal time course, Figure 4f) (R2351Q mPIEZO1; 0.3 µM, time 25 s): -0.00417 | Mean (Ca2+ signal time course, Figure 4f) (R2351Q mPIEZO1; 0.3 µM, time 30 s): -0.1638 | Mean (Ca2+ signal time course, Figure 4f) (R2351Q mPIEZO1; 0.3 µM, time 35 s): -0.1525 | Mean (Ca2+ signal time course, Figure 4f) (R2351Q mPIEZO1; 0.3 µM, time 40 s): 0.1031 | Mean (Ca2+ signal time course, Figure 4f) (R2351Q mPIEZO1; 0.3 µM, time 45 s): 0.1823 | Mean (Ca2+ signal time course, Figure 4f) (R2351Q mPIEZO1; 0.3 µM, time 50 s): 0.2367 | Mean (Ca2+ signal time course, Figure 4f) (R2351Q mPIEZO1; 0.3 µM, time 55 s): 0.2605 | Mean (Ca2+ signal time course, Figure 4f) (R2351Q mPIEZO1; 0.3 µM, time 60 s): 0.2818 | Mean (Ca2+ signal time course, Figure 4f) (R2351Q mPIEZO1; 0.3 µM, time 65 s): 0.2859 | Mean (Ca2+ signal time course, Figure 4f) (R2351Q mPIEZO1; 0.3 µM, time 70 s): 0.3055 | Mean (Ca2+ signal time course, Figure 4f) (R2351Q mPIEZO1; 0.3 µM, time 75 s): 0.2731 | Mean (Ca2+ signal time course, Figure 4f) (R2351Q mPIEZO1; 0.3 µM, time 80 s): 0.2811 | Mean (Ca2+ signal time course, Figure 4f) (R2351Q mPIEZO1; 0.3 µM, time 85 s): 0.2788 | Mean (Ca2+ signal time course, Figure 4f) (R2351Q mPIEZO1; 0.3 µM, time 90 s): 0.2616 | Mean (Ca2+ signal time course, Figure 4f) (R2351Q mPIEZO1; 0.3 µM, time 95 s): 0.2726 | Mean (Ca2+ signal time course, Figure 4f) (R2351Q mPIEZO1; 0.3 µM, time 100 s): 0.2623 | Mean (Ca2+ signal time course, Figure 4f) (R2351Q mPIEZO1; 0.3 µM, time 105 s): 0.2451 | Mean (Ca2+ signal time course, Figure 4f) (R2351Q mPIEZO1; 0.3 µM, time 110 s): 0.2677 | Mean (Ca2+ signal time course, Figure 4f) (R2351Q mPIEZO1; 0.3 µM, time 115 s): 0.2432 | Mean (Ca2+ signal time course, Figure 4f) (R2351Q mPIEZO1; 0.3 µM, time 120 s): 0.2668 | Mean (Ca2+ signal time course, Figure 4f) (R2351Q mPIEZO1; 0.3 µM, time 125 s): 0.2392 | Mean (Ca2+ signal time course, Figure 4f) (R2351Q mPIEZO1; 0.3 µM, time 130 s): 0.2157 | Mean (Ca2+ signal time course, Figure 4f) (R2351Q mPIEZO1; 3 µM, time 0 s): -0.0127 | Mean (Ca2+ signal time course, Figure 4f) (R2351Q mPIEZO1; 3 µM, time 5 s): -0.01559 | Mean (Ca2+ signal time course, Figure 4f) (R2351Q mPIEZO1; 3 µM, time 10 s): 0.01198 | Mean (Ca2+ signal time course, Figure 4f) (R2351Q mPIEZO1; 3 µM, time 15 s): 0.01352 | Mean (Ca2+ signal time course, Figure 4f) (R2351Q mPIEZO1; 3 µM, time 20 s): 7.66E-04 | Mean (Ca2+ signal time course, Figure 4f) (R2351Q mPIEZO1; 3 µM, time 25 s): 0.00202 | Mean (Ca2+ signal time course, Figure 4f) (R2351Q mPIEZO1; 3 µM, time 30 s): -0.4931 | Mean (Ca2+ signal time course, Figure 4f) (R2351Q mPIEZO1; 3 µM, time 35 s): -0.08324 | Mean (Ca2+ signal time course, Figure 4f) (R2351Q mPIEZO1; 3 µM, time 40 s): 0.5902 | Mean (Ca2+ signal time course, Figure 4f) (R2351Q mPIEZO1; 3 µM, time 45 s): 0.919 | Mean (Ca2+ signal time course, Figure 4f) (R2351Q mPIEZO1; 3 µM, time 50 s): 1.153 | Mean (Ca2+ signal time course, Figure 4f) (R2351Q mPIEZO1; 3 µM, time 55 s): 1.288 | Mean (Ca2+ signal time course, Figure 4f) (R2351Q mPIEZO1; 3 µM, time 60 s): 1.4 | Mean (Ca2+ signal time course, Figure 4f) (R2351Q mPIEZO1; 3 µM, time 65 s): 1.461 | Mean (Ca2+ signal time course, Figure 4f) (R2351Q mPIEZO1; 3 µM, time 70 s): 1.455 | Mean (Ca2+ signal time course, Figure 4f) (R2351Q mPIEZO1; 3 µM, time 75 s): 1.399 | Mean (Ca2+ signal time course, Figure 4f) (R2351Q mPIEZO1; 3 µM, time 80 s): 1.41 | Mean (Ca2+ signal time course, Figure 4f) (R2351Q mPIEZO1; 3 µM, time 85 s): 1.397 | Mean (Ca2+ signal time course, Figure 4f) (R2351Q mPIEZO1; 3 µM, time 90 s): 1.327 | Mean (Ca2+ signal time course, Figure 4f) (R2351Q mPIEZO1; 3 µM, time 95 s): 1.295 | Mean (Ca2+ signal time course, Figure 4f) (R2351Q mPIEZO1; 3 µM, time 100 s): 1.247 | Mean (Ca2+ signal time course, Figure 4f) (R2351Q mPIEZO1; 3 µM, time 105 s): 1.236 | Mean (Ca2+ signal time course, Figure 4f) (R2351Q mPIEZO1; 3 µM, time 110 s): 1.129 | Mean (Ca2+ signal time course, Figure 4f) (R2351Q mPIEZO1; 3 µM, time 115 s): 1.087 | Mean (Ca2+ signal time course, Figure 4f) (R2351Q mPIEZO1; 3 µM, time 120 s): 1.099 | Mean (Ca2+ signal time course, Figure 4f) (R2351Q mPIEZO1; 3 µM, time 125 s): 1.0906 | Mean (Ca2+ signal time course, Figure 4f) (R2351Q mPIEZO1; 3 µM, time 130 s): 0.9817 | Mean (concentration-response, Figure 4g) (R2351Q mPIEZO1; Yoda2b concentration 0.01 µM): 6.31E-04 | Mean (concentration-response, Figure 4g) (R2351Q mPIEZO1; Yoda2b concentration 0.03 µM): 0.01052 | Mean (concentration-response, Figure 4g) (R2351Q mPIEZO1; Yoda2b concentration 0.1 µM): 0.03752 | Mean (concentration-response, Figure 4g) (R2351Q mPIEZO1; Yoda2b concentration 0.3 µM): 0.1939 | Mean (concentration-response, Figure 4g) (R2351Q mPIEZO1; Yoda2b concentration 1 µM): 0.4898 | Mean (concentration-response, Figure 4g) (R2351Q mPIEZO1; Yoda2b concentration 3 µM): 0.7217 | Mean (concentration-response, Figure 4g) (R2351Q mPIEZO1; Yoda2b concentration 10 µM): 0.9598 | channel activation compared with Yoda1 (R2351Q mPIEZO1; side-by-side, same 96-well plate): more potently activated by Yoda2b | solubility kinetic [1]: 6.1 µM (≈ 2.42 µg/mL)
Structure (SMILES): O=C(O)c1ccc(-c2cnc(SCc3c(Cl)cccc3Cl)s2)cc1 [Yoda2b, 4-(2-([(2,6-Dichlorophenyl)methyl]sulfanyl)-1,3-thiazol-5-yl)benzoic acid]
